The numbers were not newly measured in publication PMC9943811 (Diabetes Therapy, 2022), which cites them from elsewhere.

The conditions of the series: ref [19], [20].

On to `N[C@@H](CC(=O)N1CCn2c(nnc2C(F)(F)F)C1)Cc1cc(F)c(F)cc1F` [sitagliptin], for which the terminal half-life entry is on record as “around 12 h”.
